Measurements reported in PubChem BioAssay AID330 (DTP/NCI, 2004).
Values joined by “and” are separate entries in the source; they are usually repeats but may differ in a detail not shown here. Equal values may be shown once. Inconclusive results and toxic doses are left out. How the source made its calls: active means survival T/C of 150% or more; inactive means T/C below 125% in these data.

Test system: P388 leukemia ip, CD2F1 mice, survival T/C
Experiment: NCI In Vivo Anticancer Drug Screen. Data for tumor model P388 Leukemia (intraperitoneal) in CD2F1 (CDF1) mice
Conditions: endpoint: median survival time, higher = longer survival
Procedure, shortened: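 Mice carrying the transplanted tumor received test compound or vehicle. Survival was recorded in each group, and the value is the treated-group measurement divided by that of the vehicle-treated control group.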

[1] = dose: 6.25 mg/kg/injection, schedule: Q01DX005 (ip), vehicle: saline with Tween-80
[2] = dose: 25.0 mg/kg/injection, schedule: Q01DX005 (ip), vehicle: saline with Tween-80
[3] = dose: 50.0 mg/kg/injection, schedule: Q01DX005 (ip), vehicle: saline with Tween-80
[4] = dose: 100.0 mg/kg/injection, schedule: Q01DX005 (ip), vehicle: saline with Tween-80
[5] = dose: 200.0 mg/kg/injection, schedule: Q01DX005 (ip), vehicle: saline with Tween-80
[6] = dose: 60.0 mg/kg/injection, schedule: Q01DX005 (ip), vehicle: saline with Tween-80
[7] = dose: 120.0 mg/kg/injection, schedule: Q01DX005 (ip), vehicle: saline with Tween-80
[8] = dose: 240.0 mg/kg/injection, schedule: Q01DX005 (ip), vehicle: saline with Tween-80
[9] = dose: 50.0 mg/kg/injection, schedule: Q04DX003 (ip), vehicle: saline with Tween-80
[10] = dose: 1.56 mg/kg/injection, schedule: Q01DX005 (ip), vehicle: saline with Tween-80
[11] = dose: 50.0 mg/kg/injection, schedule: Q01DX005 (ip), vehicle: Klucel (hydroxypropylcellulose) (HPC)
[12] = dose: 100.0 mg/kg/injection, schedule: Q01DX005 (ip), vehicle: Klucel (hydroxypropylcellulose) (HPC)
[13] = dose: 50.0 mg/kg/injection, schedule: Q01DX009 (ip), vehicle: saline with Tween-80
[14] = dose: 100.0 mg/kg/injection, schedule: Q01DX009 (ip), vehicle: saline with Tween-80
[15] = dose: 200.0 mg/kg/injection, schedule: Q01DX009 (ip), vehicle: saline with Tween-80
[16] = dose: 100.0 mg/kg/injection, schedule: Q04DX003 (ip), vehicle: saline with Tween-80
[17] = dose: 200.0 mg/kg/injection, schedule: Q04DX003 (ip), vehicle: saline with Tween-80
[18] = dose: 200.0 mg/kg/injection, schedule: Q04DX002 (ip), vehicle: saline with Tween-80
[19] = dose: 200.0 mg/kg/injection, schedule: Q01DX005 (ip), vehicle: Klucel (hydroxypropylcellulose) (HPC)

Measured: T/C

COC1C(/C=C2\CC(=O)N(c3ccccc3)C2=O)OC2OC(C)(C)OC21 (stereo unspecified)
inactive: dose: 100.0 mg/kg/injection, schedule: Q01DX001 (ip), vehicle: suspension in saline 97 % of control | dose: 200.0 mg/kg/injection, schedule: Q01DX001 (ip), vehicle: suspension in saline 102 % of control | dose: 400.0 mg/kg/injection, schedule: Q01DX001 (ip), vehicle: suspension in saline 100 % of control

CCC1=CCC2C(=O)c3cc4ccccc4cc3C(=O)C2C1 (stereo unspecified)
inactive: [1] 103 % of control | dose: 12.5 mg/kg/injection, schedule: Q01DX005 (ip), vehicle: saline with Tween-80 108 % of control | [2] 108 % of control and 93 % of control

Cc1cn2c(n1)sc1ccccc12
inactive: [3] 96 % of control | [4] 95 % of control | [5] 95 % of control

Nc1ncnc2nc(-c3ccc(OCc4ccccc4)cc3)[nH]c12
inactive: dose: 100.0 mg/kg/injection, schedule: Q01DX001 (ip), vehicle: saline 101 % of control | dose: 200.0 mg/kg/injection, schedule: Q01DX001 (ip), vehicle: saline 94 % of control | dose: 400.0 mg/kg/injection, schedule: Q01DX001 (ip), vehicle: saline 98 % of control

O=c1[nH]c2c([N+](=O)[O-])cc(Cl)cc2nc1/C=C(\O)c1ccco1
inactive: [6] 101 % of control | [7] 89 % of control | [8] 92 % of control

CCCCCCCCCCCCCC(C)NCc1ccccc1 (stereo unspecified)
inactive: dose: 25.0 mg/kg/injection, schedule: Q04DX003 (ip), vehicle: saline with Tween-80 96 % of control | [9] 100 % of control

CCCNC(=O)NNC(=O)c1ccc(NC(=O)NCCC)cc1
inactive: dose: 50.0 mg/kg/injection, schedule: Q01DX009 (ip), vehicle: Klucel (hydroxypropylcellulose) (HPC) 101 % of control | dose: 100.0 mg/kg/injection, schedule: Q01DX009 (ip), vehicle: Klucel (hydroxypropylcellulose) (HPC) 102 % of control | dose: 200.0 mg/kg/injection, schedule: Q01DX009 (ip), vehicle: Klucel (hydroxypropylcellulose) (HPC) 89 % of control

O=C1Nc2ccc(Br)cc2/C1=c1/sc2nc3ccccc3n2c1=O
inactive: [10] 100 % of control | dose: 3.12 mg/kg/injection, schedule: Q01DX005 (ip), vehicle: saline with Tween-80 98 % of control | [1] 100 % of control | [11] 87 % of control | [12] 94 % of control

O=C1NCC(c2ccccc2)N1 (stereo unspecified)
inactive: [13] 119 % of control | [14] 100 % of control | [15] 106 % of control

CCCN(CCNc1cc(OC)cc2cccnc12)C(C)CC (stereo unspecified)
inactive: dose: 50.0 mg/kg/injection, schedule: Q01DX005 (ip), vehicle: saline 107 % of control | dose: 100.0 mg/kg/injection, schedule: Q01DX005 (ip), vehicle: saline 92 % of control

O=Cc1c(-c2ccc(Cl)cc2)nc2sccn12
inactive: dose: 100.0 mg/kg/injection, schedule: Q01DX001 (ip), vehicle: Klucel (hydroxypropylcellulose) (HPC) 93 % of control | dose: 200.0 mg/kg/injection, schedule: Q01DX001 (ip), vehicle: Klucel (hydroxypropylcellulose) (HPC) 96 % of control | dose: 400.0 mg/kg/injection, schedule: Q01DX001 (ip), vehicle: Klucel (hydroxypropylcellulose) (HPC) 93 % of control

OCC1CCCC1CO (stereo unspecified)
inactive: [3] 106 % of control and 101 % of control | [4] 105 % of control and 101 % of control | [5] 100 % of control and 114 % of control

c1ccc(NC2=NCCO2)nc1
inactive: [9] 100 % of control | [16] 95 % of control | [17] 100 % of control

Cc1ccc(S(=O)(=O)Nc2ccc3ncccc3c2)cc1
inactive: [16] 99 % of control | [17] 98 % of control

CN(C)C1(c2ccccc2)CS(=O)(=O)C1
inactive: [13] 96 % of control | [14] 96 % of control | [15] 94 % of control

O=C1c2cc3c(cc2C(=O)c2ncccc21)CCCC3
inactive: [3] 98 % of control | [4] 86 % of control | [5] 89 % of control

C/C=C(\NN=NC)c1ccccc1
active: [18] 166 % of control

O=C(Nc1ccc(Cl)cc1)SC1=NCC(=O)N1c1ccccc1
inactive: dose: 0.78 mg/kg/injection, schedule: Q01DX005 (ip), vehicle: saline with Tween-80 101 % of control | [10] 102 % of control | dose: 3.13 mg/kg/injection, schedule: Q01DX005 (ip), vehicle: saline with Tween-80 98 % of control and 94 % of control | [1] 94 % of control | [2] 89 % of control | [4] 88 % of control | [5] 92 % of control

COc1cc2nc(C)n(C)c(=O)c2cc1OC
inactive: dose: 12.5 mg/kg/injection, schedule: Q01DX009 (ip), vehicle: saline with Tween-80 95 % of control | dose: 25.0 mg/kg/injection, schedule: Q01DX009 (ip), vehicle: saline with Tween-80 116 % of control | [13] 101 % of control

O=c1oc2c(cc1-c1ccccc1)CCCC2
inactive: [11] 102 % of control | [12] 104 % of control | [19] 103 % of control

CN1C(=O)[C@@H]2N(N(C)C1=O)[C@@]1(Br)C(=O)NC(=O)[C@@]21Br
inactive: dose: 60.0 mg/kg/injection, schedule: Q01DX005 (ip), vehicle: Klucel (hydroxypropylcellulose) (HPC) 97 % of control | dose: 120.0 mg/kg/injection, schedule: Q01DX005 (ip), vehicle: Klucel (hydroxypropylcellulose) (HPC) 100 % of control | dose: 240.0 mg/kg/injection, schedule: Q01DX005 (ip), vehicle: Klucel (hydroxypropylcellulose) (HPC) 91 % of control

O=C(CCCCC(=O)N/N=C/c1ccco1)N/N=C/c1ccco1
inactive: [6] 99 % of control | [7] 94 % of control | [8] 91 % of control

COC(=O)C12CC(CCC1C13CCC4(OCCO4)C(C)(C)C1C(=O)OC3)C(C)C2O (stereo unspecified)
inactive: dose: 100.0 mg/kg/injection, schedule: Q04DX002 (ip), vehicle: saline with Tween-80 97 % of control | [18] 94 % of control | dose: 400.0 mg/kg/injection, schedule: Q04DX002 (ip), vehicle: saline with Tween-80 100 % of control

Nc1nc(=S)c2[nH]c(-c3ccccc3)nc2[nH]1
inactive: dose: 12.5 mg/kg/injection, schedule: Q01DX005 (ip), vehicle: other 106 % of control | dose: 25.0 mg/kg/injection, schedule: Q01DX005 (ip), vehicle: other 100 % of control | dose: 50.0 mg/kg/injection, schedule: Q01DX005 (ip), vehicle: other 102 % of control | dose: 100.0 mg/kg/injection, schedule: Q01DX005 (ip), vehicle: other 100 % of control

COc1cc(Br)cc(C(=O)N2CCc3ccccc32)c1OC
inactive: dose: 25.0 mg/kg/injection, schedule: Q01DX009 (ip), vehicle: other 99 % of control | dose: 50.0 mg/kg/injection, schedule: Q01DX009 (ip), vehicle: other 96 % of control | dose: 100.0 mg/kg/injection, schedule: Q01DX009 (ip), vehicle: other 96 % of control | dose: 200.0 mg/kg/injection, schedule: Q01DX009 (ip), vehicle: other 96 % of control | dose: 400.0 mg/kg/injection, schedule: Q01DX009 (ip), vehicle: other 87 % of control

Cc1ccc(C=Nc2ccc(Cl)c(Cl)c2)cc1
inactive: [6] 100 % of control | [7] 108 % of control | [8] 89 % of control

Clc1ccc(C[Se][Se]Cc2ccc(Cl)cc2)cc1
inactive: dose: 6.25 mg/kg/injection, schedule: Q01DX009 (ip), vehicle: Klucel (hydroxypropylcellulose) (HPC) 109 % of control | dose: 12.5 mg/kg/injection, schedule: Q01DX009 (ip), vehicle: Klucel (hydroxypropylcellulose) (HPC) 108 % of control | dose: 25.0 mg/kg/injection, schedule: Q01DX009 (ip), vehicle: Klucel (hydroxypropylcellulose) (HPC) 101 % of control

COc1ccc(N2C(=O)CCC2=O)cc1
inactive: dose: 100.0 mg/kg/injection, schedule: Q01DX001 (ip), vehicle: saline with Tween-80 109 % of control | dose: 200.0 mg/kg/injection, schedule: Q01DX001 (ip), vehicle: saline with Tween-80 100 % of control | dose: 400.0 mg/kg/injection, schedule: Q01DX001 (ip), vehicle: saline with Tween-80 95 % of control

CCOP(=S)(N/N=C/c1ccc(Br)s1)OCC
inactive: [11] 101 % of control | [12] 106 % of control | [19] 104 % of control
